US11447472B2, “Polymorophs of 5-aza-4′-thio-2′-deoxycytidine” (Southern Research Institute, priority 2020, dated 2022)
Values after ≈ are worked out from the molar mass of the structure shown.

Legend:
Format in all cases: physicochemical
[1] = Chemical stability of aza-T-dCyd in solutions (RT, 50° C., 80° C.), HPLC; conditions: for purity in solution (chemical stability): RT for 24 h, and 50° C. or 80° C. for 1 hour, HPLC
Experimental: The chemical stability of aza-T-dCyd was determined. Aza-T-dCyd was prepared in 1,4-dioxane, acetonitrile (ACN), isopropanol (IPA), and methyl ethyl ketone. Each solution was divided over 3 vials and incubated at RT for 24 hours, at 50° C. for 1 hour, or at 80° C. for 1 hour. The solutions were analyzed by HPLC at the start and after the incubation time.

[2] = Stability tests at 5° C.: mother liquors and solid phases of suspensions, HPLC; conditions: for chemical stability (purity over time) / purity decreased over time to: 5° C.; for chemical stability (purity over time): 70 hours; for purity decreased over time to: about 70 hours, area %
Experimental: Additional stability tests were performed at 5° C. Suspensions of the starting material were prepared in water, acetonitrile, ethanol (EtOH), and isopropanol. The mother liquors of the suspensions and the water solution were analyzed by HPLC at regular intervals over 3 days.
The solid phases from the suspensions were also evaluated for purity after 72 h. […] Therefore, the aza-T-dCyd appeared chemically stable in the solid phase after 70-hour incubation at 5° C.

[3] = Thermodynamic solubility, shake-flask method; conditions: for solubility at 24 h: organic solvent or mixture, thermodynamic from solid, RT
Experimental: The thermodynamic solubility of aza-T-dCyd was determined according to the shake-flask method. Suspensions of the crystalline aza-T-dCyd were prepared in 25 neat solvents. Small aliquots of solvent were added to the aza-T-dCyd until thin suspensions were obtained. Subsequently, the samples were equilibrated at RT under continuous stirring for 24 hours. After equilibration, a small aliquot of mother liquor was filtered and analyzed by HPLC. The concentration of the solute was determined against a calibration curve of the aza-T-dCyd. The solubility values of aza-T-dCyd at room temperature are listed in Table 3 according to the US Pharmacopeia's classification (USP29). The aza-T-dCyd was soluble in high boiling point solvents such as DMF and DMA. Generally, aza-T-dCyd was slightly or very slightly soluble in polar solvents and practically insoluble in non-polar solvents.

Nc1ncn([C@H]2C[C@H](O)[C@@H](CO)S2)c(=O)n1 [aza-T-dCyd, 5-Aza-4′-thio-2′-deoxycytidine]
purity in solution (chemical stability) ([1]; 1,4-dioxane): > 95% | chemical stability in solution ([1]; IPA, heated at 80° C. (1 hour) or stored at RT for 24 h): degraded significantly | purity in solution (chemical stability) ([1]; acetonitrile): > 95% | chemical stability in solution ([1]; methyl ethyl ketone, 1 hour at 50° C. and 80° C., 24 hour at RT): significant decomposition | chemical stability (purity over time) ([2]; IPA, mother liquor): remained stable | purity decreased over time to ([2]; acetonitrile, mother liquor): 84% | chemical stability (purity over time) ([2]; ethanol, mother liquor): remained stable | Purity of Aza-T-dCYd after 72 h at 5° C. ([2]; solid phase from ACN suspension): 98.8 area % | Purity of Aza-T-dCYd after 72 h at 5° C. ([2]; solid phase from EtOH suspension): 99.8 area % | Purity of Aza-T-dCYd after 72 h at 5° C. ([2]; solid phase from IPA suspension): 99.4 area % | purity of solids recovered from the suspensions ([2]; solid phases from the four solvents after 72 h at 5° C.): about 99 % (area %) | purity decreased over time to ([2]; water solution): 78% | USP29 class. ([3]; 2,2,2,-trifluoroethanol, Methanol (rows r7-r8), class wraps over two lines: Slightly Soluble): Slightly | USP29 class. ([3]; Anisole to Toluene (rows r20-r33), class wraps over two lines: Practically insoluble): Practically | USP29 class. ([3]; Dimethylformamide, N,N-dimethylacetamide (rows r5-r6)): Soluble | USP29 class. ([3]; Ethanol to 1,2-dimethoxyethane (rows r9-r19), class wraps over three lines: Very Slightly Soluble): Very | solubility at 24 h ([3]; 1,2-dimethoxyethane): 100 µg/mL (≈ 409 µM) | solubility at 24 h ([3]; 1,4-dioxane): 300 µg/mL (≈ 1230 µM) | solubility at 24 h ([3]; 1-propanol): 400 µg/mL (≈ 1640 µM) | solubility at 24 h ([3]; 2,2,2,-trifluoroethanol): 4100 µg/mL (≈ 16800 µM) | solubility at 24 h ([3]; 2-butanol): 300 µg/mL (≈ 1230 µM) | solubility at 24 h ([3]; 2-methyltetrahydrofuran): 100 µg/mL (≈ 409 µM) | solubility at 24 h ([3]; 2-propanol): 400 µg/mL (≈ 1640 µM) | solubility at 24 h ([3]; 4-methyl-2-pentanone): 100 µg/mL (≈ 409 µM) | solubility at 24 h ([3]; Acetone): 200 µg/mL (≈ 819 µM) | solubility at 24 h ([3]; Acetonitrile): 100 µg/mL (≈ 409 µM) | solubility at 24 h ([3]; Anisole): < 100 µg/mL | solubility at 24 h ([3]; Chloroform): < 100 µg/mL | solubility at 24 h ([3]; Cumene): < 100 µg/mL | solubility at 24 h ([3]; Cyclohexane): < 100 µg/mL | solubility at 24 h ([3]; Dichloromethane): < 100 µg/mL | solubility at 24 h ([3]; Diethyl ether): < 100 µg/mL | solubility at 24 h ([3]; Dimethylformamide): 65800 µg/mL (≈ 269000 µM) | solubility at 24 h ([3]; Ethanol): 800 µg/mL (≈ 3270 µM) | solubility at 24 h ([3]; Ethyl acetate): < 100 µg/mL | solubility at 24 h ([3]; Ethyl formate): < 100 µg/mL | solubility at 24 h ([3]; Heptane): < 100 µg/mL | solubility at 24 h ([3]; Isopropyl acetate): < 100 µg/mL | solubility at 24 h ([3]; Methanol): 3600 µg/mL (≈ 14700 µM) | solubility at 24 h ([3]; Methyl ethyl ketone): < 100 µg/mL | solubility at 24 h ([3]; N,N-dimethylacetamide): 60000 µg/mL (≈ 246000 µM) | solubility at 24 h ([3]; Tetrahydrofuran): 100 µg/mL (≈ 409 µM) | solubility at 24 h ([3]; Toluene): < 100 µg/mL | solubility at 24 h ([3]; p-Xylene): < 100 µg/mL | solubility at 24 h ([3]; tert-butyl methyl ether): < 100 µg/mL
